Reference: the NIST ThermoML archive (doi:10.1021/je700339f)

Test: xn = mol fraction of the nth substance listed
Conditions: 298 K, Liquid

ClCCCCCCCl [1,6-dichlorohexane] + CN(C)C=O
mass density [kg/m3]
Conditions	x2 = 0.0986	x2 = 0.2013	x2 = 0.3197	x2 = 0.4014	x2 = 0.5033	x2 = 0.6037	x2 = 0.7034	x2 = 0.8019	x2 = 0.9008
100 kPa	1056.4	1048.6	1038.2	1030.1	1019	1007.3	994.3	980	963.6
500 kPa	1056.6	1048.8	1038.4	1030.3	1019.3	1007.6	994.6	980.3	963.9
1000 kPa	–	1049.2	1038.8	1030.7	1019.6	1007.9	995	980.6	964.2
1100 kPa	1057.1	–	–	–	–	–	–	–	–
1500 kPa	1057.3	1049.6	1039.2	1031.1	1020	1008.2	995.3	980.9	964.5
2000 kPa	1057.7	1049.9	1039.5	1031.4	1020.3	1008.6	995.6	981.3	964.8
2500 kPa	1058	1050.2	1039.8	1031.7	1020.7	1008.9	995.9	981.6	965.1
2900 kPa	–	–	–	–	1021	–	–	–	–
3000 kPa	1058.4	1050.6	1040.2	1032.1	–	1009.2	996.3	981.9	965.4
3500 kPa	1058.7	1050.9	1040.5	1032.4	1021.3	1009.6	996.6	982.2	965.8
4000 kPa	1059.1	1051.3	1040.8	1032.8	1021.7	1009.9	996.9	982.6	966.1
4500 kPa	1059.4	1051.6	1041.2	1033.2	1022	1010.2	997.2	982.9	966.4
4900 kPa	–	–	–	–	–	–	–	983.2	–
5000 kPa	1059.8	1052	1041.5	1033.4	1022.3	1010.5	997.5	–	966.7
5500 kPa	1060.1	1052.3	1041.8	1033.8	1022.6	1010.9	997.8	983.5	967
5900 kPa	–	–	–	–	–	1011.2	–	–	–
6000 kPa	1060.4	1052.6	1042.2	1034.2	1023	–	998.2	983.9	967.3
6400 kPa	–	–	–	–	–	–	–	984.2	–
6500 kPa	1060.8	1053	1042.6	1034.5	1023.3	1011.5	998.5	–	967.7
6900 kPa	–	–	–	1034.8	–	–	–	–	967.8
7000 kPa	1061.1	1053.3	1042.9	–	1023.7	1011.9	998.8	984.5	–
7400 kPa	–	–	–	1035.1	–	–	–	–	–
7500 kPa	1061.5	1053.7	1043.2	–	1024	1012.2	999.1	984.8	968.2
7900 kPa	1061.8	–	–	–	–	–	–	–	–
8000 kPa	–	1054	1043.5	1035.5	1024.4	1012.6	999.5	985.1	968.5
8400 kPa	–	–	–	–	–	1012.8	–	985.4	968.8
8500 kPa	1062.2	1054.4	1043.8	1035.8	1024.6	–	999.8	–	–
8900 kPa	–	–	–	–	–	1013.1	–	–	–
9000 kPa	1062.5	1054.7	1044.2	1036.1	1025	–	1000.1	985.8	969.1
9400 kPa	–	–	–	–	–	–	–	–	969.4
9500 kPa	1062.8	1055.1	1044.5	1036.5	1025.3	1013.5	1000.4	986.1	–
10000 kPa	1063.1	1055.5	1044.9	1036.9	1025.7	1013.9	1000.8	986.4	969.8
10400 kPa	–	–	–	–	–	–	–	986.7	969.9
10500 kPa	1063.5	1055.8	1045.3	1037.2	1026	1014.2	1001.1	–	–
10900 kPa	1063.8	–	–	–	–	–	–	987	–
11000 kPa	–	1056.1	1045.5	1037.5	1026.4	1014.5	1001.4	–	970.3
11400 kPa	–	–	1045.8	–	–	1014.8	–	–	–
11500 kPa	1064.2	1056.4	–	1037.8	1026.7	–	1001.8	987.4	970.5
11900 kPa	–	–	–	–	–	1015.1	–	–	–
12000 kPa	1064.5	1056.8	1046.2	1038.2	1027	–	1002	987.6	970.8
12400 kPa	–	–	–	–	–	1015.4	–	–	971.1
12500 kPa	1064.9	1057.1	1046.5	1038.4	1027.3	–	1002.4	988	–
12900 kPa	1065.2	–	–	1038.8	–	–	–	–	–
13000 kPa	–	1057.4	1046.8	–	1027.6	1016	1002.7	988.2	971.3
13500 kPa	1065.5	1057.8	1047.2	1039.2	1028	1016.3	1003	988.6	971.6
13900 kPa	–	–	–	1039.5	–	–	–	–	–
14000 kPa	1065.8	1058.1	1047.5	–	1028.3	1016.6	1003.3	989	971.9
14400 kPa	–	–	–	–	–	1016.8	–	–	–
14500 kPa	–	1058.4	1047.8	1039.8	1028.6	–	1003.5	989.2	972.2
14600 kPa	1066.2	–	–	–	–	–	–	–	–
15000 kPa	1066.5	1058.7	1048.2	1040	1028.9	1017.3	1003.9	989.5	972.6
15400 kPa	–	–	–	–	1029.2	1017.6	–	–	–
15500 kPa	1066.9	1059	1048.6	1040.4	–	–	1004.2	989.8	972.8
15900 kPa	–	1059.3	–	1040.7	–	–	–	990.1	–
16000 kPa	1067.1	–	1048.8	–	1029.6	1018	1004.5	–	973.1
16400 kPa	–	1059.6	–	1041	–	–	–	–	–
16500 kPa	1067.4	–	1049	–	1030	1018.2	1004.8	990.4	973.4
17000 kPa	1067.8	1060	1049.4	1041.4	1030.3	1018.5	1005.1	990.7	973.7
17500 kPa	1068.2	1060.3	1049.7	1041.7	1030.5	1018.8	1005.4	990.9	974
17900 kPa	–	–	1050	–	–	–	–	991.2	–
18000 kPa	1068.5	1060.6	–	1042	1030.9	1019.1	1005.6	–	974.3
18500 kPa	1068.8	1060.9	1050.3	1042.3	1031.2	1019.4	1005.9	991.5	974.7
19000 kPa	1069.2	1061.2	1050.7	1042.6	1031.5	1019.8	1006.3	991.9	975.1
19400 kPa	–	1061.5	–	–	–	–	–	–	–
19500 kPa	1069.5	–	1051	1042.9	1031.8	1020.1	1006.6	992.2	975.4
20000 kPa	1069.8	1062	1051.5	1043.2	1032.2	1020.5	1007	992.5	975.8
